Source: paper PMC7577319 (Bioorganic & medicinal chemistry, 2020)

Test system: HeLa cells
Experiment: Cytosolic entry of NF-labelled peptides by flow cytometry
Assay type: cell-based
Conditions: 5 μM, 2 h, inversion of configuration of Arg-9 or Nal-4 of peptide 4

cyclo(AAFΦRpPRrFAAAQ)-miniPEG-K(NF) [compound 7]
fold higher cytosolic entry activity relative to peptide 4: 1.7 fold

cyclo(AAFϕRpPRRFAAAQ)-miniPEG-K(NF) [compound 8]
fold higher cytosolic entry activity relative to peptide 4: 2.3 fold
